Results: the NIST ThermoML archive (doi:10.1007/s10765-011-1087-7)
Numbers after ± are expanded uncertainties.

How the values were obtained:
[1] = refractive index (Na D-line) (dimensionless); conditions: 101.33 kPa, Liquid
[2] = 101 kPa, Liquid; for viscosity: Capillary tube (Ostwald / Ubbelohde) method; for speed of sound: Pulse-echo method
[3] = refractive index (Na D-line) (dimensionless); xn = mol fraction of the nth substance listed; conditions: 101 kPa, Liquid, x1 = 1
[4] = xn = mol fraction of the nth substance listed; conditions: 101 kPa, Liquid, x1 = 1; for speed of sound: Pulse-echo method

Clc1ccc(Cl)c(Cl)c1 [1,2,4-trichlorobenzene]
refractive index ([1]; 298.15 K): 1.548 ± 0.0012
refractive index ([1]; 303.15 K): 1.546 ± 0.0012
refractive index ([1]; 308.15 K): 1.543 ± 0.0012
mass density ([2]; 298.15 K): 1448.41 ± 1.1 kg/m3
viscosity ([2]; 298.15 K): 1.926 ± 0.012 mPa·s
speed of sound ([2]; 298.15 K): 1272 ± 1.2 m/s
mass density ([2]; 303.15 K): 1442.43 ± 1.1 kg/m3
viscosity ([2]; 303.15 K): 1.76 ± 0.012 mPa·s
speed of sound ([2]; 303.15 K): 1256.4 ± 1.2 m/s
mass density ([2]; 308.15 K): 1436.45 ± 1.1 kg/m3
viscosity ([2]; 308.15 K): 1.617 ± 0.011 mPa·s
speed of sound ([2]; 308.15 K): 1240.9 ± 1.2 m/s

Clc1ccccc1Cl [1,2-dichlorobenzene]
refractive index ([1]; 298.15 K): 1.546 ± 0.0012
refractive index ([1]; 303.15 K): 1.544 ± 0.0012
refractive index ([1]; 308.15 K): 1.541 ± 0.0012
mass density ([2]; 298.15 K): 1300.3 ± 0.87 kg/m3
viscosity ([2]; 298.15 K): 1.314 ± 0.01 mPa·s
speed of sound ([2]; 298.15 K): 1281.6 ± 1.3 m/s
mass density ([2]; 303.15 K): 1294.72 ± 0.86 kg/m3
viscosity ([2]; 303.15 K): 1.235 ± 0.01 mPa·s
speed of sound ([2]; 303.15 K): 1265.2 ± 1.3 m/s
mass density ([2]; 308.15 K): 1289.13 ± 0.85 kg/m3
viscosity ([2]; 308.15 K): 1.144 ± 0.009 mPa·s
speed of sound ([2]; 308.15 K): 1245.9 ± 1.3 m/s

Clc1ccccc1Cl [1,2-dichlorobenzene] + CCCCCCC(C)O
refractive index ([3]; 298.15 K): 1.546 ± 0.0012
refractive index ([3]; 303.15 K): 1.544 ± 0.0012
refractive index ([3]; 308.15 K): 1.541 ± 0.0012
speed of sound ([4]; 298.15 K): 1281.6 ± 1.3 m/s
mass density ([4]; 298.15 K): 1300.3 ± 0.87 kg/m3
viscosity ([4]; 298.15 K): 1.314 ± 0.047 mPa·s
speed of sound ([4]; 303.15 K): 1265.2 ± 1.3 m/s
mass density ([4]; 303.15 K): 1294.72 ± 0.86 kg/m3
viscosity ([4]; 303.15 K): 1.235 ± 0.045 mPa·s
speed of sound ([4]; 308.15 K): 1245.9 ± 1.3 m/s
mass density ([4]; 308.15 K): 1289.13 ± 0.85 kg/m3
viscosity ([4]; 308.15 K): 1.144 ± 0.042 mPa·s

Clc1cccc(Cl)c1 [1,3-dichlorobenzene]
refractive index ([1]; 298.15 K): 1.544 ± 0.0012
refractive index ([1]; 303.15 K): 1.541 ± 0.0012
refractive index ([1]; 308.15 K): 1.538 ± 0.0012
mass density ([2]; 298.15 K): 1283.45 ± 0.84 kg/m3
viscosity ([2]; 298.15 K): 1.014 ± 0.009 mPa·s
speed of sound ([2]; 298.15 K): 1255 ± 1.3 m/s
mass density ([2]; 303.15 K): 1277.79 ± 0.82 kg/m3
viscosity ([2]; 303.15 K): 0.946 ± 0.008 mPa·s
speed of sound ([2]; 303.15 K): 1238.4 ± 1.3 m/s
mass density ([2]; 308.15 K): 1272.1 ± 0.81 kg/m3
viscosity ([2]; 308.15 K): 0.891 ± 0.008 mPa·s
speed of sound ([2]; 308.15 K): 1221.9 ± 1.3 m/s

Clc1cccc(Cl)c1 [1,3-dichlorobenzene] + CCCCCCC(C)O
refractive index ([3]; 298.15 K): 1.544 ± 0.0012
refractive index ([3]; 303.15 K): 1.541 ± 0.0012
refractive index ([3]; 308.15 K): 1.538 ± 0.0012
speed of sound ([4]; 298.15 K): 1255 ± 1.3 m/s
mass density ([4]; 298.15 K): 1283.45 ± 0.84 kg/m3
viscosity ([4]; 298.15 K): 1.014 ± 0.075 mPa·s
speed of sound ([4]; 303.15 K): 1238.4 ± 1.3 m/s
mass density ([4]; 303.15 K): 1277.79 ± 0.82 kg/m3
viscosity ([4]; 303.15 K): 0.946 ± 0.071 mPa·s
speed of sound ([4]; 308.15 K): 1221.9 ± 1.3 m/s
mass density ([4]; 308.15 K): 1272.1 ± 0.81 kg/m3
viscosity ([4]; 308.15 K): 0.891 ± 0.067 mPa·s

CCCCCCC(C)O (configuration not stated) [2-octanol]
refractive index ([1]; 298.15 K): 1.4226 ± 0.0012
refractive index ([1]; 303.15 K): 1.4206 ± 0.0012
refractive index ([1]; 308.15 K): 1.4185 ± 0.0012
mass density ([2]; 298.15 K): 816.39 ± 0.57 kg/m3
viscosity ([2]; 298.15 K): 6.566 ± 0.072 mPa·s
speed of sound ([2]; 298.15 K): 1307 ± 1 m/s
mass density ([2]; 303.15 K): 812.58 ± 0.58 kg/m3
viscosity ([2]; 303.15 K): 5.178 ± 0.061 mPa·s
speed of sound ([2]; 303.15 K): 1289 ± 1 m/s
mass density ([2]; 308.15 K): 808.74 ± 0.59 kg/m3
viscosity ([2]; 308.15 K): 4.162 ± 0.051 mPa·s
speed of sound ([2]; 308.15 K): 1271 ± 1 m/s
